According to US20240270821A1, “GIP/GLP1/GCG TRI-RECEPTOR AGONISTS AND USES THEREOF” (priority 2023, published 2024):
Starred links: 1 amine or outer side, 2 acyl side, 3 side chain; linkers in the order of their positions; H or OH if unused. Non-standard residues stand in square brackets, D forms with d. Groups on a side chain read outwards from the residue. *: point of attachment. C20 diacid = O=C(O)CCCCCCCCCCCCCCCCCCC(=O)*; C18 diacid = O=C(O)CCCCCCCCCCCCCCCCC(=O)*; γGlu = O=C(O)[C@H](CCC(=O)[*:2])N[*:1]; αMe4Pal = C[C@](N)(Cc1ccncc1)C(=O)O; 4Pal = N[C@@H](Cc1ccncc1)C(=O)O; αMeL = CC(C)C[C@](C)(N)C(=O)O; Orn = NCCC[C@H](N)C(=O)O; AEEA = NCCOCCOCC(=O)O; Aib = CC(C)(N)C(=O)O

How the values were obtained:
Format in all cases: cell-based
[1] = biological target: T1, hGIPR (Homo sapiens, UniProt P48546); assay: Functional cAMP activity in the presence of 1% HSA; conditions: read-out: cAMP Rel EC50, hGIPR
T1 sequence (P48546 22-466): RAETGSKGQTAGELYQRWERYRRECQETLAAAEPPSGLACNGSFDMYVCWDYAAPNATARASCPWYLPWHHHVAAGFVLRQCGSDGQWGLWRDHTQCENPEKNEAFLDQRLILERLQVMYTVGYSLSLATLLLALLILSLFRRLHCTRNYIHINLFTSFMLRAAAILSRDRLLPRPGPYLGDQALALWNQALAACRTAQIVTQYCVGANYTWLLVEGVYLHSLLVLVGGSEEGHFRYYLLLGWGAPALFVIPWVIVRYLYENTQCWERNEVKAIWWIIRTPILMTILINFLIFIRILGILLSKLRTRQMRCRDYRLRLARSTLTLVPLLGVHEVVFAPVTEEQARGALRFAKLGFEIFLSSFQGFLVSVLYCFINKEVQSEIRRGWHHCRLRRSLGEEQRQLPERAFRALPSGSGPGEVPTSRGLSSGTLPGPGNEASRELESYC

[2] = biological target: T2, hGLP-1R (Homo sapiens, UniProt P43220); assay: Functional cAMP activity in the presence of 1% HSA; conditions: read-out: cAMP Rel EC50, hGLP-1R
[3] = biological target: human GcgR (Homo sapiens, UniProt P47871); assay: Functional cAMP activity in the presence of 1% HSA; conditions: read-out: cAMP Rel EC50, hGcgR
[4] = biological target: T1, hGIPR; assay: Functional cAMP activation in the presence of 0.1% casein (no HSA); conditions: in the presence of 0.1% casein (no HSA); geometric mean; read-out: Relative cAMP EC50, hGIPR;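 as to Relative cAMP EC50, hGIPR: intracellular cAMP rise after 30 min at 37 °C read by HTRF against a standard curve, scaled between buffer alone (0%) and top control ligand concentration (100%), four-parameter fit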;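 as to Relative cAMP EC50, hGLP-1R: intracellular cAMP rise after 30 min at 37 °C read by HTRF, normalized between buffer only (0%) and maximal control ligand (100%), four-parameter variable-slope fit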;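 as to Relative cAMP EC50, hGcgR: intracellular cAMP rise after 30 min at 37 °C, read by HTRF against a cAMP standard curve, scaled from buffer only (0%) to maximal control ligand response (100%)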
[5] = biological target: T2, hGLP-1R; assay: as above; conditions: in the presence of 0.1% casein (no HSA); geometric mean; read-out: Relative cAMP EC50, hGLP-1R
[6] = biological target: hGcgR (Homo sapiens, UniProt P47871); assay: as above; conditions: in the presence of 0.1% casein (no HSA); geometric mean; read-out: Relative cAMP EC50, hGcgR;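 also: intracellular cAMP rise after 30 min at 37 °C, read by HTRF against a cAMP standard curve, scaled from buffer only (0%) to maximal control ligand response (100%)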
[7] = biological target: human GLP1-R (Homo sapiens, UniProt P43220); assay: GLP1-R internalization assay in HEK293 cells; conditions: for EC50: HEK293 cells expressing SNAP-GLP-1R, read-out: GLP1R Internalization EC50; for Internalization % TOP: normalized to maximum concentration of GLP-1 (100%)
Chain of human GLP1-R (P43220 24-463): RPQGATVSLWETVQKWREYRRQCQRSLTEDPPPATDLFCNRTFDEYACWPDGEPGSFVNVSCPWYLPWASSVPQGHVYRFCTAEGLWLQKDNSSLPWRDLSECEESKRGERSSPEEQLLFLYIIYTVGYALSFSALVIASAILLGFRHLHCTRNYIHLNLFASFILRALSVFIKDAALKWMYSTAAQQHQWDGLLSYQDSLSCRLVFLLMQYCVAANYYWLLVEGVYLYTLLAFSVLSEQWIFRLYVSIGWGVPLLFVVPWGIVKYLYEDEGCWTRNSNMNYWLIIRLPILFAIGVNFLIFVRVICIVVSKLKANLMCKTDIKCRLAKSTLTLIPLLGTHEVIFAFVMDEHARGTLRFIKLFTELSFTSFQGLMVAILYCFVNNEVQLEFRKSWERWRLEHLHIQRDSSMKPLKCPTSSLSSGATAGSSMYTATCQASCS

Chain of human GcgR (P47871 26-477): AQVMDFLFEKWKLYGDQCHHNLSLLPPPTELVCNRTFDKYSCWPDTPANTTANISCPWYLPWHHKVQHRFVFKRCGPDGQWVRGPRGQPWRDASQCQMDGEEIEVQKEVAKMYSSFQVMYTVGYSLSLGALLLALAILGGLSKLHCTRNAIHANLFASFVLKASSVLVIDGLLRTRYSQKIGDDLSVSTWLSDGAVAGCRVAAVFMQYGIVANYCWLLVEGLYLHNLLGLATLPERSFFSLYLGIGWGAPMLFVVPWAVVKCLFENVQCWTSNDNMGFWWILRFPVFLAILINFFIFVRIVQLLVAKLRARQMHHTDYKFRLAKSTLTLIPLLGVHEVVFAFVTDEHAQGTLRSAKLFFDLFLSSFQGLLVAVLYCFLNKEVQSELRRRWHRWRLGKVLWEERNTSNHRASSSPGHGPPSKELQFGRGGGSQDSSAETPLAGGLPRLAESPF
Chain of hGcgR (P47871 26-477): as above
T2 sequence (P43220 24-463): as the sequence (P43220 24-463) above

Substance	EC50 [1]	EC50 [2]	EC50 [3]	EC50 [4]	EC50 [5]	EC50 [6]	EC50 [7]	Internalization % TOP [7]
H-Y[Aib]QGTFTSDFS[Orn][αMeL]LDKK([AEEA-γGlu-C18 diacid])AQ[Aib]AFIEYLLAGGPSSGAPPPSGS-NH2 [Example 95]	18.2 nM	380 nM	1130 nM	0.116 nM	1.95 nM	8.41 nM	37.8 nM	49.3%
H-Y[Aib]QGTFTSDFS[Orn][αMeL]LDKK([AEEA-γGlu-C18 diacid])AQ[Aib]AFIEYLLAGGPSSGAPPPSGSE-NH2 [Example 90]	24.9 nM	371 nM	990 nM	0.173 nM	2.68 nM	9.58 nM	70.8 nM	49.8%
H-Y[Aib]QGTFTSDFS[Orn][αMeL]LDKK([AEEA-γGlu-C18 diacid])AQ[Aib]AFIEYLLAGGPSSGAPPPSGT-NH2 [Example 87]	12.8 nM	290 nM	1110 nM	0.128 nM	2.75 nM	8.51 nM	61.8 nM	45.4%
H-Y[Aib]QGTFTSDFS[Orn][αMeL]LDKK([AEEA-γGlu-C18 diacid])AQ[Aib]AFIEYLLAGGPSSGEPPPSGE-NH2 [Example 97]	23.9 nM	605 nM	1270 nM	0.176 nM	3.23 nM	6.73 nM	51.9 nM	50.7%
H-Y[Aib]QGTFTSDFS[Orn][αMeL]LDKK([AEEA-γGlu-C18 diacid])AQ[Aib]AFIEYLLEGGHSSGAPPPGGS-NH2 [Example 162]	37.5 nM	786 nM	558 nM	0.222 nM	4.72 nM	4.72 nM	48.8 nM	44.8%
H-Y[Aib]QGTFTSDFS[Orn][αMeL]LDKK([AEEA-γGlu-C18 diacid])AQ[Aib]AFIEYLLEGGHSSGEPPPGGS-NH2 [Example 164]	59 nM	962 nM	411 nM	0.302 nM	5.02 nM	2.92 nM	45.9 nM	46.5%
H-Y[Aib]QGTFTSDFS[Orn][αMeL]LDKK([AEEA-γGlu-C18 diacid])AQ[Aib]AFIEYLLEGGPSSGAPPPGGS[AEEA]-NH2 [Example 66]	29.9 nM	329 nM	415 nM	0.219 nM	3.86 nM	3.71 nM	42.1 nM	46.3%
H-Y[Aib]QGTFTSDFS[Orn][αMeL]LDKK([AEEA-γGlu-C18 diacid])AQ[Aib]AFIEYLLEGGPSSGAPPPGGT-NH2 [Example 158]	24.7 nM	184 nM	325 nM	0.245 nM	2.49 nM	3.72 nM	104 nM	52.4%
H-Y[Aib]QGTFTSDFS[Orn][αMeL]LDKK([AEEA-γGlu-C18 diacid])AQ[Aib]AFIEYLLEGG[4Pal]SSGAPPPGGS-NH2 [Example 163]	52 nM	762 nM	790 nM	0.376 nM	6.5 nM	5.6 nM	143 nM	37.8%
H-Y[Aib]QGTFTSDFS[Orn][αMeL]LDKK([AEEA-γGlu-C18 diacid])AQ[Aib]AFIEYLLE[Aib]GPSSGAPPPSGE-NH2 [Example 110]	19.8 nM	821 nM	627 nM	0.102 nM	2.99 nM	2.45 nM	28.3 nM	42.5%
H-Y[Aib]QGTFTSDFS[Orn][αMeL]LDKK([AEEA-γGlu-C18 diacid])AQ[Aib]AFIEYLLE[Aib]GPSSGAPPPSGS-NH2 [Example 74]	15.9 nM	627 nM	709 nM	0.0708 nM	3.32 nM	2.53 nM	72.7 nM	53.3%
H-Y[Aib]QGTFTSDFS[Orn][αMeL]LDKK([AEEA-γGlu-C18 diacid])AQ[Aib]AFIEYLLE[Aib]GPSSGAPPPSGT-NH2 [Example 200]	13.7 nM	395 nM	360 nM	0.0739 nM	3.19 nM	2.83 nM	86.1 nM	39.2%
H-Y[Aib]QGTFTSDFS[Orn][αMeL]LDKK([AEEA-γGlu-C18 diacid])AQ[Aib]AFIEYLLE[Aib]GPSSG[Aib]PPPSGS-NH2 [Example 239]	12 nM	419 nM	693 nM	0.0503 nM	2.9 nM	2.14 nM	72.6 nM	42.9%
H-Y[Aib]QGTFTSDFS[Orn][αMeL]LDKK([AEEA-γGlu-C18 diacid])AQ[Aib]AFIEYLLE[Aib]G[4Pal]SSGAPPPSGE-NH2 [Example 248]	10.6 nM	438 nM	241 nM	0.0861 nM	3.17 nM	3.36 nM	67.4 nM	39.5%
H-Y[Aib]QGTFTSDFS[Orn][αMeL]LDKK([AEEA-γGlu-C18 diacid])AQ[αMe4Pal]AFIEYLIE[Aib]GESSGAPPPSGE-NH2 [Example 228]	37.8 nM	311 nM	322 nM	0.147 nM	1.52 nM	1.38 nM	39 nM	35%
H-Y[Aib]QGTFTSDFS[Orn][αMeL]LDKK([AEEA-γGlu-C18 diacid])AQ[αMe4Pal]AFIEYLIE[Aib]GESSGAPPPSGS-NH2 [Example 229]	27.8 nM	249 nM	332 nM	0.179 nM	1.58 nM	2.3 nM	42.4 nM	31.4%
H-Y[Aib]QGTFTSDFS[Orn][αMeL]LDKK([AEEA-γGlu-C20 diacid])AQ[Aib]AFIEWLLEGGPSSGAPPPSGS-NH2 [Example 78]	78.4 nM	560 nM	2640 nM	0.228 nM	1.93 nM	7.06 nM	78.2 nM	55%
H-Y[Aib]QGTFTSDFS[Orn][αMeL]LDKK([AEEA-γGlu-γGlu-C18 diacid])AQ[Aib]AFIEYLLE[Aib]GPSSGAPPPSGS-NH2 [Example 192]	9.86 nM	719 nM	560 nM	0.142 nM	9.77 nM	4.18 nM	115 nM	48.7%
H-Y[Aib]QGTFTSDFS[Orn][αMeL]LDKK([AEEA-γGlu-γGlu-C18 diacid])AQ[Aib]AFIEYLLE[Aib]GPSSGAPPPSGT-NH2 [Example 278]	7.69 nM	241 nM	274 nM	0.0963 nM	4.11 nM	4.45 nM	251 nM	68.6%
H-Y[Aib]QGTFTSDFS[Orn][αMeL]LDKK([AEEA-γGlu-γGlu-C18 diacid])AQ[Aib]AFIEYLLE[Aib]GPSSGAPPPSG[4Pal]-NH2 [Example 279]	11.6 nM	367 nM	427 nM	0.105 nM	5.77 nM	5.06 nM	115 nM	37.5%
H-Y[Aib]QGTFTSDFS[Orn][αMeL]LDKK([γGlu-AEEA-γGlu-C18 diacid])AQ[Aib]AFIEYLLE[Aib]GPSSGAPPPSGT-NH2 [Example 276]	6.28 nM	103 nM	113 nM	0.0708 nM	2.61 nM	2.82 nM	237 nM	68.4%
H-Y[Aib]QGTFTSDYSK[αMeL]LDKK([AEEA-γGlu-C18 diacid])AQ[Aib]AFIEYLLEGGESSGAPPPSGS-NH2 [Example 358]	38.8 nM	492 nM	876 nM	0.182 nM	2.31 nM	2.78 nM	21.5 nM	83.1%
H-Y[Aib]QGTFTSDYSQ[αMeL]LDKK([AEEA-γGlu-C18 diacid])AQ[Aib]AFIEYLLEGGESSGAPPPSGS-NH2 [Example 362]	38.7 nM	450 nM	1450 nM	0.262 nM	1.77 nM	6.04 nM	22.8 nM	77.5%
